Reference: patent US20140113869A1, “Gbetagamma BINDING SITE ON THE PIK3CB GENE PRODUCT AND METHODS OF USE” (Albert Einstein College of Medicine of Yeshiva University, priority 2011, published 2014)
Ends that are not written are not given here. * marks the point of attachment. Myristoyl = CCCCCCCCCCCCCC(=O)*

Experiments:
[1] = system: NIH3T3 cells transfected with p110β/p85; experiment: Wound healing (wound closure) migration assay; format: cell-based; conditions: 30 μM peptide; wound closure after 24h; FIG. 8
Description: FIG. 8. NIH3T3 cells were transfected without or with p85/p110β. Confluent monolayers were scratched with a pipette tip, and wound closure after 24h was measured in the absence or presence of 30 μM p110β peptide or scrambled control peptide
(§1) To test the possibility that small molecules targeting the p110β-Gβγ interface could be used as therapeutics, a peptide was designed derived from the Gβγ-binding loop in p110β. having the sequence […] (SEQ ID NO:6) a scrambled version of the peptide serves as a negative control. […] The test whether the peptide could be efficacious in vivo, we created a cell permeable myristylated version of the peptide. The peptide blocked activation of Akt in cells transfected with Gβγ (FIG. 6A); the peptide's inhibitory activity required its entry into the cells, since both myristoylated and TAT-tagged peptide inhibited Gβγ activation of Akt, whereas unlabeled peptide had no effect (FIG. 6B). The myristoylated peptide blocked the formation of colonies in soft agar (FIG. 7A) and the formation of foci (FIG. 7B), both measures of transformation, in NIH3T3 cells transfected with p85/p110β.

[2] = system: Gβγ; experiment: Alphascreen competition with phage-displayed SIGK peptide for binding to biotinylated Gβγ; conditions: FIG. 9A
Description: (§2) FIG. 9A-9D. Peptide inhibitors of Gβγ -mediated p110β/p85 activation are specific for p85/p110β. (9A) Myristoylated p110β peptides or SIGK peptide were preincubated with biotinylated Gβγ or 5 min, followed by addition of phage particles displaying the SIGK peptide, After a 1 h incubation at room temperature, Anti-M-13 phase monoclonal antibody was added followed by addition of Streptavidin coated Alphascreen donor beads and protein A coated Alphascreen acceptor beads. After a 2 h incubation, the Alphascreen signal was read on a Perkin Elmer Envision Multilabel Plate reader. […] Bound proteins were analyzed by western blot. […] The cells were fixed and the number of GFP punctae per cell was counted using a Nikon Eclipse 400 microscope with 60× 1.4 N.A. optics. […]

[3] = system: Gβγ activation of Akt (pT308-Akt) in NIH3T3 cells; experiment: pT308-Akt blotting in NIH3T3 cells transfected with Gβγ; format: cell-based; conditions: for Gβγ activation of Akt (pT308-Akt): myristoylated vs TAT-tagged vs unmodified peptide, FIG. 6B
Description: FIG. 6A-6B. (6A) NIH3T3 cells were transfected without or with Gβγ and incubated with scrambled (control) or p110β peptide. pT308-Akt was measured by blotting. (6B) Cell transfected as above were incubated with myristoylated peptide, TAT-tagged peptide, or unmodified peptide. pT308-Akt was measured by blotting.
as §1

[4] = system: recombinant adenylyl cyclase; experiment: Synergistic activation of adenylyl cyclase by Gβγ and Gαs in Sf9 cell membranes; format: biochemical; conditions: 30 μM peptide; 20 nM Gsα, 20 nM Gβγ; FIG. 9D
[5] = molecular target: T1, p110β binding to Rab5 (Homo sapiens, UniProt P42338); experiment: p110β binding to immobilized GST-Rab5 (pull-down from HEK293T lysates); conditions: FIG. 9E
T1 construct: expressed in transfected cells; host or cells: HEK293T (p85α and p110β)
T1 sequence (P42338 whole entry): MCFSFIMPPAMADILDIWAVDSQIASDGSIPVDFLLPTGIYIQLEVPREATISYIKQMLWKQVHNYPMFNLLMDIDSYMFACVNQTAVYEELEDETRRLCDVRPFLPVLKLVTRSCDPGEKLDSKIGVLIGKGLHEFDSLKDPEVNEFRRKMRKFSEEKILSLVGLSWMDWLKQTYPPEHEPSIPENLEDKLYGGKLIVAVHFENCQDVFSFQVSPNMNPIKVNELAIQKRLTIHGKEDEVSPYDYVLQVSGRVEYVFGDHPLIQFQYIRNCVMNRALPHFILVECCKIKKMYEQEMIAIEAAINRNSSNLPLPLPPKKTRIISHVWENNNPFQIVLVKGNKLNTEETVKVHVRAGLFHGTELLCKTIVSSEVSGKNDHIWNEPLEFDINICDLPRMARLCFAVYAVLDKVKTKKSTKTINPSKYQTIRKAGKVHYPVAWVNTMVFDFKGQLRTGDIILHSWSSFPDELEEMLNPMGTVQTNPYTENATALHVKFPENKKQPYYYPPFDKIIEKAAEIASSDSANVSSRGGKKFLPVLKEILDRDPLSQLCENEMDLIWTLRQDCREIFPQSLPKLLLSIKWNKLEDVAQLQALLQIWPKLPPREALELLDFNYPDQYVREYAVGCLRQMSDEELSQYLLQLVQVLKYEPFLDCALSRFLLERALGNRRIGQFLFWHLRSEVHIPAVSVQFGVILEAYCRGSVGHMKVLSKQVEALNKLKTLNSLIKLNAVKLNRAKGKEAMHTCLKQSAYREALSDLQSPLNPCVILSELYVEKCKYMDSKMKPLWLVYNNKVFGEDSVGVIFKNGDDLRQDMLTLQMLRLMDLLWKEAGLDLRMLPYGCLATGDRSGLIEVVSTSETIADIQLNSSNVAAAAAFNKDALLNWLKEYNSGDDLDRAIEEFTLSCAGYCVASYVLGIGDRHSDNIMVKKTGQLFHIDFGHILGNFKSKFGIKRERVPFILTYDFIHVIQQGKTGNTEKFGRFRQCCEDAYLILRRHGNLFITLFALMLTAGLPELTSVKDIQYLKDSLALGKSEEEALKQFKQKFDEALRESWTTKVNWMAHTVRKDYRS
Description: as §2

[6] = system: PC3 prostate cancer cells; experiment: PC-3 cell proliferation, MTS assay; format: cell-based; conditions: 30 μM peptide; FIG. 10A
Description: (§3) FIG. 10A-10C. Inhibition of prostate cancer cell proliferation and chemotaxis: (A) Proliferation of PC-3 cells was measured by the MTS assay in the absence or presence of 30 μM myristoylated p110β-derived peptide or scrambled peptide. (B) Proliferation assays were performed on two PTEN-null endometrial cancer cell lines (AN3CA and RL95-2) and one PTEN positive endometrial cell line (KLE) grown in the absence or presence of myristoylated p110β-derived peptide or scrambled peptide. (C) PC-3 cells chemotaxis toward 10% […] in the absence or presence of 20 μM p110β-derived peptide or scrambled peptide was measured in Boyden chambers.
(§4) Finally, the peptide was evaluated for effects on the growth of PC3 prostate cancer cells, which are known to require p110β for growth. […] Importantly, published studies have shown that kinase-dead p110β can rescue cell growth in cell lines where proliferation is inhibited by p110β knockout. Since currently available p110β inhibitors target the active site of p110β and act by inhibiting its kinase activity, they would not be expected to suppress the growth of cells that depend on p110β for growth. In contrast, the p110β peptide described here inhibits p110β by a distinct mechanism, and is likely to be more efficacious at suppressing the growth of p110β-dependent prostate cancer cells than active site inhibitors.

[7] = system: Class IB PI3K p101/p110γ; experiment: Gβγ-dependent activation of p101/p110γ, pT308-Akt western blot in HEK293E cells; format: cell-based; conditions: FIG. 9C
Description: as §2

[8] = system: NIH3T3 cells transfected with p85/p110β; experiment: Colony formation in soft agar; format: cell-based; conditions: 30 μM peptide; FIG. 7A
Description: (§5) FIG. 7A-7B. (7A). NIH3T3 cells were transfected without or with p85/p110β and incubated without or with 30 μM p110β peptide or scrambled control peptide. Colony formation in soft agar by cells transfected and treated with peptide as above. (7B). Foci were measured after 2 weeks.
as §1

[9] = system: HEK293A cells expressing GFP-LC3; experiment: p110β-dependent induction of autophagy, GFP-LC3 punctae in HEK293A cells; format: cell-based; conditions: PBS containing 100 nM rapamycin, 2 h; FIG. 9F
Description: as §2

[10] = system: NIH3T3 cells transfected with p85/p110β; experiment: Foci formation; format: cell-based; conditions: 30 μM peptide; foci measured after 2 weeks; FIG. 7B
Description: as §5, §1

[11] = system: PC3 cells; experiment: PC-3 chemotaxis in Boyden chambers; format: cell-based; conditions: 20 μM peptide; toward 10% PBS; FIG. 10C
Description: as §3, §4

[12] = system: p110β; experiment: p110β expression in peptide-treated transfected cells; format: cell-based; conditions: FIG. 7
Description: as §5

[13] = system: p85/p110β dimers activated by Gβγ; experiment: In vitro activation of p85/p110β dimers by Gβγ (lipid kinase activity); format: biochemical; conditions: peptide 5-fold in excess of Gβγ; FIG. 5
Description: FIG. 5. Percent stimulation of p85/p110β dimers incubated without or with Gβγ in the absence or presence of 5-1Old excess peptide. Pep=p110β peptide. Scram=scrambled peptide control.
as §2

competition with the binding to Gβγ of SIGK peptide [2] | p110β binding to Rab5 [5] | activation of p110β by Gβγ [13] | Substance | enhanced migration in a wound healing assay [1] | activation of Akt in cells transfected with Gβγ (pT308-Akt) ([3]; NIH3T3 cells, FIG. 6A) | Gβγ activation of Akt (pT308-Akt) [3] | synergistic activation of adenylyl cyclase by Gβγ and Gαs [4] | PC3 cells number (growth) [6] | Gβγ-dependent activation of the Class IB PI3K p101/p110γ [7] | formation of colonies in soft agar [8] | p110β-dependent induction of autophagy [9] | formation of foci [10] | PC3 cells chemotaxis toward serum [11] | p110β expression [12]
did not compete | no effect | – | myristoylated peptide: cell permeable myristylated version of the p110β peptide KAAEIASSDSANVSSRGGKKFLPV (SEQ ID NO:6) (Myristoyl-KAAEIASSDSANVSSRGGKKFLPV) | blocked | blocked | inhibited | no effect | caused a decrease | no effect | blocked | no effect | blocked | inhibited | did not reduce
– | – | markedly reduces | KAAEIASSDSANVSSRGGKKFLPV (SEQ ID NO:6) [peptide] | – | – | no effect | – | – | – | – | – | – | – | –
